Here are results for 2 compounds from patent publication US20180280528A1, “ANTIFOLATE CONJUGATES FOR TREATING INFLAMMATION” (ENDOCYTE, INC., priority 2015, published 2018).

Series [1] is described as follows: Incubation with AIA rat macrophage cell lysates. The class given is in vitro ADME. As to conditions: AIA rat macrophage lysate, pH 4.5, 37° C., 2 hours. On the procedure:
Prior to immunization with adjuvant, female Lewis rats were fed a folate-deficient diet (Harlan Teklad, Indianapolis, Ind.) for approximately 10 days to reduce serum folate competition from high-folate-containing regular rodent chow. The rats were then inoculated intradermally (at the base of tail) with 0.5 mg heat-killed M. butyricum (BD Diagnostic Systems, Franklin Lakes, N.J.) in 100 μL light mineral oil (Sigma-Aldrich, St Louis, Mo., USA). The rats were then allowed to develop arthritis scores between 3 and 4 as described in Lu et al. (Arthritis Research & Therapy 2011, 13:R56). After rats developed severe joint inflammation, AIA rat peritoneal cells were isolated, plated, and whole cell lysates were prepared as described above with the exception that the lysates were resuspended in 0.1 M sodium acetate buffer, pH 4.5, to make a concentration of cell lysates equivalent to 10 million cells/mL of 0.1 M sodium acetate buffer, pH 4.5.
To 100 μL AIA rat macrophage, RAW264.7 or THP-1 FRβ cell lysates (each containing 10 million cells/mL 0.1 M sodium acetate, Ph 4.5) was added 2 μL of a 50 μM solution of EC2319 or EC1669 (Endocyte, Inc.). The solutions were incubated at 37° C. in a heat block (VWR International, Radnor, Pa.) for 2 hours. The reaction was terminated by the addition of 5 µL of stabilizer solution and 100 μL of acetonitrile containing d5-aminopterin (Endocyte, Inc.). […]

Series [2] in a line: Incubation with THP-1 FRβ cell lysates. Format: in vitro ADME, human. The settings on record: THP-1 FRβ lysate, pH 4.5, 37° C., 2 hours. On the procedure:
To 100 μL AIA rat macrophage, RAW264.7 or THP-1 FRβ cell lysates (each containing 10 million cells/mL 0.1 M sodium acetate, Ph 4.5) was added 2 μL of a 50 μM solution of EC2319 or EC1669 (Endocyte, Inc.). The solutions were incubated at 37° C. in a heat block (VWR International, Radnor, Pa.) for 2 hours. The reaction was terminated by the addition of 5 µL of stabilizer solution and 100 μL of acetonitrile containing d5-aminopterin (Endocyte, Inc.). The rest of the workup is as described above.

A short description of series [3]: Release of aminopterin in dog hepatic cytosol. As to conditions: 5% dog liver cytosol, 1 hour; for pH dependence of aminopterin release from the conjugate: pH 4.5, 6.0, 7.4, 37° C. Format: in vitro ADME. As for the experimental part:
EC2319 and EC1669 were incubated in 5% rat, dog, and human hepatic cytosol at different pH's to look at release of aminopterin from these conjugates. Liver cytosols from male Sprague-Dawley rats (Lot No. 1110428), male beagle dogs (Lot no. 1310024), and male humans (Lot No. 0710493), all containing 10 mg/mL protein, were obtained from Xenotech LLC (Lenexa, Kans.). These were diluted 20× in either 0.5 M sodium acetate buffer, pH 4.5, 0.5 M sodium acetate buffer, 6.0, or 0.5 M potassium phosphate buffer, pH 7.4 in a final volume of 500 μL. Reactions were initiated by the addition of 1 μL of either EC2319 or EC1669 and the reaction mixtures incubated at 37° C. for 1 hour. At the end of the incubation, a 100 μL aliquot was withdrawn into a cluster tube and the reaction was terminated by the addition of 5 μL of stabilizer solution (containing 8.5 mg/ml N-Maleoyl-β-alanine, 20 mg/mL mannitol and 0.075% acetic acid) and 100 μL of acetonitrile containing d5-aminopterin. The tubes were vortexed and then centrifuged at 4000 rpm for 10 minutes (Eppendorf centrifuge 5810R). 150 μL of the supernatant was transferred to 96-well plates and the acetonitrile evaporated off under nitrogen at 35° C. for 5 minutes. The extract was diluted with 50 μL of mobile phase A. The plate was vortexed on a VX-2500 multi-tube vortexer (VWR International, Radnor, Pa.) and the extract analyzed by LC-MS/MS.

Series [4] deals with Rat adjuvant arthritis (AIA). Briefly: Rat adjuvant arthritis (AIA) treatment studies. The class given is in vivo. On the procedure:
Female Lewis rats (175-200 g) were purchased from Harlan Sprague Dawley (Indianapolis, Ind.) and allowed to acclimate for 1 week. Generally, rats were fed a folate-deficient diet (Harlan Teklad) for 9-10 days prior to arthritis induction.
Rat adjuvant arthritis (AIA) was induced by intradermal inoculation (at the base of tail) of 0.45-0.46 mg of heat-killed Mycobacteria butyricum (BD Diagnostic Systems, Sparks, Md.) in 100 μL light mineral oil (Sigma). […] During the course of disease development, animals were weighed at least 3 times a week. Paw edema (degree of arthritis) were scored 3 times a week as follows: 0=no edema or arthritis; 1=swelling in one type of joint; 2=swelling in two types of joint; 3=swelling in three types of joint; 4=swelling of the entire paw. A total score for each rat is calculated by adding up the scores for each of the four paws, giving a maximum of 16 per animal.
On the first day of treatment, rats with desired arthritis scores were distributed evenly across the control and treatment groups (n=5). […] All compounds and conjugates were administered subcutaneously (s.c.) starting 9 days after arthritis induction with biweekly (BIW, Mondays and Thursdays) or once-a-week (QW, Mondays) dosing for two consecutive weeks. At the completion of each study (˜4 days after the last treatment), rats were euthanized by CO2 asphyxiation and processed for paw weight (cut at the hairline) and spleen weight.
The rat AIA model resembles many characteristics of human rheumatoid arthritis and it is very aggressive. […] The animals in the AIA control group were left untreated.

Series [5] has as its target T1, human folate receptor (FR)-α (Homo sapiens, UniProt P15328).
T1 construct: endogenous in cells; host or cells: KB cells (human HeLa carcinoma contaminant)
Description: Relative affinity assay (displacement of 3H-folic acid on KB cells). The class given is binding. The settings on record: 100 nM 3H-folic acid, 1 h at 37° C., normalized against 1 for FA. On the procedure: Cell lines utilized to evaluate EC2319 in in-vitro studies were as follows: KB human HeLa carcinoma contaminant expressing the human folate receptor (FR)-α, RAW264.7 mouse macrophage-derived tumor cells expressing a murine FR, THP-1-FRβ human monocytic leukemia engineered to express the human FR-β. All cells were grown in a folate-free RPMI1640 medium (Gibco BRL) (FFRPMI) containing 10% heat-inactivated fetal calf serum (HIFCS) and antibiotics, and maintained under a 5% CO2 atmosphere using standard cell culture techniques.
EC2319 FR-binding affinity was determined in a relative affinity assay using KB cells as the source of FR. Briefly, KB cells (1×10^5 cells/well) were plated in 24-well plates at 18 to 24 h before use. The cells were then incubated for 1 h at 37° C. with 100 nM of ^3H-folic acid (Moravek Inc.) plus a series of 3.16-fold dilutions of EC2319 or FA at 0.01-31.6 μM in triplicates. At the end of incubation, the cells were washed 3 times with a phosphate-buffered saline (PBS, pH 7.4) and lysed for 5 min at room temperature in 0.5 mL of 0.25 N NaOH. 0.45 mL of the cell lysate was taken from each well and counted in a scintillation counter. […] See result in FIG. 1.
(In general: Displacement assays read how much labelled ligand stays bound in the presence of the test substance.)

Molecules are shown by their SMILES.

T1 sequence (P15328 25-234): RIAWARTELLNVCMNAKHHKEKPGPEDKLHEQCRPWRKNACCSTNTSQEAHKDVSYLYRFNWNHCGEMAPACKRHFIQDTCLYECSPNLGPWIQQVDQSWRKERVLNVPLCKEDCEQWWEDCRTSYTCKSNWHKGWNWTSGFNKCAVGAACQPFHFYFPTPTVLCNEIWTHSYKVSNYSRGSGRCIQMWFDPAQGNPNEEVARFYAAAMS

For `N=c1[nH]c(N)nc2ncc(CNc3ccc(C(=O)N[C@@H](CCC(=O)NNC(=O)OCCSSC[C@@H](NC(=O)[C@H](CCC(=O)NC[C@H](O)[C@@H](O)[C@H](O)[C@H](O)CO)NC(=O)[C@@H](CCC(=O)O)NC(=O)[C@H](CCC(=O)NC[C@H](O)[C@@H](O)[C@H](O)[C@H](O)CO)NC(=O)[C@@H](CCC(=O)O)NC(=O)[C@H](CCC(=O)NC[C@H](O)[C@@H](O)[C@H](O)[C@H](O)CO)NC(=O)CC[C@H](NC(=O)c4ccc(NCc5cnc6nc(N)[nH]c(=O)c6n5)cc4)C(=O)O)C(=O)O)C(=O)O)cc3)nc12` [EC1669, reference compound], the aminopterin release entry in series [1] is listed as “greater from EC1669 than from EC2319”. Besides, the aminopterin release result in series [2] is listed as “greater from EC1669 than from EC2319”. Besides, the “pH dependence of aminopterin release from the conjugate” value in series [3] was “highest at pH 4.5”. In addition, in series [4] (Study 2, 500 nmol/kg, BIW), the body weight result is “maintained a healthier body weight than EC2285” and the residual disease entry was “minimal residual diseases”. Moreover, in series [4] (Study 3, 500 nmol/kg, BIW), the anti-arthritic activity result is “significant anti-arthritic activity” and the body weight entry is on record as “maintained a good body weight”.

For the compound `COC(=O)[C@H](CSSC(C)(C)[C@H](NC(=O)[C@H](CCC(=O)NC[C@H](O)[C@@H](O)[C@H](O)[C@H](O)CO)NC(=O)[C@H](CCC(=O)O)NC(=O)[C@H](CCC(=O)NC[C@H](O)[C@@H](O)[C@H](O)[C@H](O)CO)NC(=O)[C@H](CCC(=O)O)NC(=O)[C@H](CCC(=O)NC[C@H](O)[C@@H](O)[C@H](O)[C@H](O)CO)NC(=O)CC[C@H](NC(=O)c1ccc(NCc2cnc3nc(N)[nH]c(=O)c3n2)cc1)C(=O)O)C(=O)O)NC(=O)CC[C@H](NC(=O)c1ccc(NCc2cnc3nc(N)nc(N)c3n2)cc1)C(=O)O` [EC2319], the aminopterin release result in series [1] and in series [2] was “aminopterin release was observed” each time. Moreover, the relative affinity in series [5] worked out at 0.493. Moreover, the “magnitude of aminopterin release” value in series [3] (37° C.) was “lower than that from EC1669”. Besides, the “pH dependence of aminopterin release from the conjugate” value in series [3] is recorded as “highest at pH 4.5”. For the same compound, the “alleviating AIA symptoms (arthritis score, paw weight, spleen weight)” value in series [4] (Study 1, 1000 nmol/kg, QW, s.c., two consecutive weeks) was “as effective as EC1669, EC2285, and EC2318”. In addition, the “anti-arthritic activity with concurrent EC0923 (arthritis score, paw weight, spleen weight, body weight)” value in series [4] (Study 2, 500 nmol/kg BIW plus 500-fold molar excess EC0923 (250 μmol/kg)) is reported as “fully blocked by EC0923”. Further, the body weight entry in series [4] (Study 2, 500 nmol/kg, BIW) is given as “maintained a healthier body weight than EC2285”; in series [4] (Study 3, 500 nmol/kg, BIW), “maintained a good body weight”. Further, in series [4] (Study 2, 500 nmol/kg, BIW), the residual disease result is “minimal residual diseases”. Further, the “reducing arthritis scores and paw weights” value in series [4] (Study 2, 500 nmol/kg, BIW, s.c., two consecutive weeks) is reported as “equally efficacious as EC1669 but significantly more active than EC2285”. For the same compound, the anti-arthritic activity result in series [4] (Study 3, 500 nmol/kg, BIW) is “significant anti-arthritic activity”. Further, the “decreasing arthritis score, paw weight, and spleen weight” value in series [4] (Study 3, 500 nmol/kg, BIW, two consecutive weeks) was “as efficacious as EC1669”.
